# Patent US8883782B2, “Spiro-tetracyclic ring compounds as beta-secretase modulators and methods of use” (Amgen Inc., priority 2010, dated 2014)
# Read-outs that look alike come from different tables or passages of the source.
# Columns and labels:
# [1] = system: Aβ40 in conditioned medium of cells stably expressing Amyloid Precursor Protein (APP); experiment: In vitro BACE cell-based assay (Aβ40 in conditioned medium, sandwich ELISA); conditions: read-out: HEK cell assay
# Procedure, shortened: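 Step two: 10-point compound titration added, starting 100 μM or 10 μM, 0.1% DMSO. Step three: medium Aβ40 measured by ELISA, capture 3 h and detection 2 h at 4° C, TRF read.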
# [2] = target: Beta Secretase enzyme (BACE) (Homo sapiens, UniProt P56817); experiment: In vitro enzymatic BACE FRET (fluorescence resonance energy transfer) assay; assay type: biochemical; conditions: average IC50, enzyme assay; read-out: BACE 1 FRET assay
# Sequence of Beta Secretase enzyme (BACE) (P56817 46-501, species assumed): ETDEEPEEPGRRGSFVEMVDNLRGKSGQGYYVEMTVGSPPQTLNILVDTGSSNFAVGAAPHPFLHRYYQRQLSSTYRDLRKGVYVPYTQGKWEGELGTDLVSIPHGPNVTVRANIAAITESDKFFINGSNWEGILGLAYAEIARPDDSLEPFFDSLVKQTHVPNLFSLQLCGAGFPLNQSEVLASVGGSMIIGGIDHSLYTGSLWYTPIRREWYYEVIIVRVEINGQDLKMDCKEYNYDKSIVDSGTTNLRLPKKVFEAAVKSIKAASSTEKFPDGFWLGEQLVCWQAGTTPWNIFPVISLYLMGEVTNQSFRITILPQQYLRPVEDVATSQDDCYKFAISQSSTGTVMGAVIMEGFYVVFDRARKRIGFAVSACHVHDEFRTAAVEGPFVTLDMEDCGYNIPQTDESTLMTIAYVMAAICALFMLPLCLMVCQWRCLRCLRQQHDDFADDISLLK
# Procedure, shortened: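 Buffer 0.05 M acetate pH 4.2, 10% DMSO final, 100 uM genapol (sub-CMC); start with 50 nM FRET substrate; 1 h incubation; Tris stop; fluorescence read.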
# [3] = Homo sapiens, HEK293, average IC50, HEK cells
# [4] = Homo sapiens, HEK293, average IC50
Compound,"IC50 [1, 3]",IC50 [2],"IC50 [1, 4]",IC50 ([1]; average IC50)
"CC(C)(C#N)COc1cc(F)c2c(c1)[C@]1(COC(N)=N1)c1cc(-c3cnccc3F)ccc1O2 [Example 605, 3-(((4S)-2-amino-4′-fluoro-7′-(4-fluoro-3-pyridinyl)spiro[1,3-oxazole-4,9′-xanthen]-2′-yl)oxy)-2,2-dimethylpropanenitrile]",10 nM,0.8 nM,,
"Cc1ccnc(Oc2ccc3c(c2)[C@@]2(COC(N)=N2)c2cc(C4=CCOCC4)cc(F)c2O3)c1 [Example 1065, (4S)-2′-(3,6-dihydro-2H-pyran-4-yl)-4′-fluoro-7′-((4-methyl-2-pyridinyl)oxy)spiro[1,3-oxazole-4,9′-xanthen]-2-amine]",,37.7 nM,1480 nM,
"CC1(C#Cc2cnc3c(c2)[C@@]2(COC(N)=N2)c2c(ccc(-c4cccnc4F)c2F)O3)COC1 [Example 341, (5S)-6-fluoro-7-(2-fluoro-3-pyridinyl)-3-((3-methyl-3-oxetanyl)ethynyl)spiro[chromeno[2,3-b]pyridine-5,4′-[1,3]oxazol]-2′-amine]",,154 nM,566 nM,
"NC1=N[C@@]2(CS1)c1cc(-c3cccc(Cl)c3)ccc1Oc1cnc(C3=CCOCC3)cc12 [Example 591, (5S)-7-(3-chlorophenyl)-3-(3,6-dihydro-2H-pyran-4-yl)spiro[chromeno[2,3-c]pyridine-5,4′-[1,3]thiazol]-2′-amine]",73.3 nM,0.7 nM,,
"NC1=N[C@@]2(CO1)c1cc(-c3cccnc3F)ccc1Oc1cnc(-c3ccncc3F)cc12 [Example 572, (5S)-7-(2-fluoro-3-pyridinyl)-3-(3-fluoro-4-pyridinyl)spiro[chromeno[2,3-c]pyridine-5,4′-[1,3]oxazol]-2′-amine]",148 nM,11.8 nM,,
"NC1=N[C@@]2(CS1)c1cc(-c3cccnc3F)ccc1Oc1c(F)cc(N3C[C@H]4C[C@@H]3CO4)cc12 [Example 1085, (4S)-4′-fluoro-7′-(2-fluoro-3-pyridinyl)-2′-((1R,4R)-2-oxa-5-azabicyclo[2.2.1]hept-5-yl)spiro[1,3-thiazole-4,9′-xanthen]-2-amine]",,0.3 nM,23 nM,
"COc1cc(F)c2c(c1)[C@]1(COC(N)=N1)c1cc(Br)c(F)cc1O2 [Example 523, (4S)-2′-bromo-3′,5′-difluoro-7′-methoxyspiro[1,3-oxazole-4,9′-xanthen]-2-amine]",1780 nM,884 nM,,
"COc1nc(C2=CCCOC2)cc2c1Oc1ccc(-c3cccnc3F)cc1[C@@]21COC(N)=N1 [Example 833, (5S)-3-(5,6-dihydro-2H-pyran-3-yl)-7-(2-fluoro-3-pyridinyl)-1-methoxyspiro[chromeno[2,3-c]pyridine-5,4′-[1,3]oxazol]-2′-amine]",,0.7 nM,21 nM,
"NC1=N[C@@]2(CO1)c1cc(-c3cnccc3F)ccc1Oc1ncc(C3=CCOCC3)cc12 [Example 358, (5S)-3-(3,6-dihydro-2H-pyran-4-yl)-7-(4-fluoro-3-pyridinyl)spiro[chromeno[2,3-b]pyridine-5,4′-[1,3]oxazol]-2′-amine]",,2.6 nM,24.6 nM,
"Cc1nc(F)ccc1-c1ccc2c(c1)[C@@]1(COC(N)=N1)c1cc(-c3ccnc(F)c3)ncc1O2 [Example 252, (5S)-7-(6-fluoro-2-methyl-3-pyridinyl)-3-(2-fluoro-4-pyridinyl)spiro[chromeno[2,3-c]pyridine-5,4′-[1,3]oxazol]-2′-amine]",,66.1 nM,548 nM,
"CC1(C)CC(c2cnc3c(c2)[C@]2(COC(N)=N2)c2c(ccc(-c4cccnc4F)c2F)O3)=CCO1 [Example 349, (5R)-3-(2,2-dimethyl-3,6-dihydro-2H-pyran-4-yl)-6-fluoro-7-(2-fluoro-3-pyridinyl)spiro[chromeno[2,3-b]pyridine-5,4′-[1,3]oxazol]-2′-amine]",,0.7 nM,8 nM,
"NC1=N[C@@]2(CO1)c1cc(-c3cccc(Cl)c3)ccc1Oc1ncc(-c3cnccn3)cc12 [Example 166, (5S)-7-(3-chlorophenyl)-3-(2-pyrazinyl)spiro[chromeno[2,3-b]pyridine-5,4′-[1,3]oxazol]-2′-amine]",,1.8 nM,17.7 nM,
"NC1=N[C@@]2(CO1)c1cc(-c3cccnc3F)ccc1Oc1cc(F)c(C3=CCOCC3)cc12 [Example 320, (4S)-2′-(3,6-dihydro-2H-pyran-4-yl)-3′-fluoro-7′-(2-fluoro-3-pyridinyl)spiro[1,3-oxazole-4,9′-xanthen]-2-amine]",,6.6 nM,60 nM,
"CC(C)(C)C#Cc1ccc2c(c1)[C@@]1(COC(N)=N1)c1cc(C3=CCOCC3)ncc1O2 [Example 161, (5S)-3-(3,6-dihydro-2H-pyran-4-yl)-7-(3,3-dimethyl-1-butyn-1-yl)spiro[chromeno[2,3-c]pyridine-5,4′-[1,3]oxazol]-2′-amine]",,9.7 nM,108 nM,
"NC1=N[C@@]2(CO1)c1cc(-c3cccnc3F)ccc1Oc1ncc(Br)cc12 [Example 1018, (5S)-3-bromo-7-(2-fluoro-3-pyridinyl)spiro[chromeno[2,3-b]pyridine-5,4′-[1,3]oxazol]-2′-amine]",,577 nM,563 nM,
"NC1=N[C@@]2(CS1)c1cc(-c3cccnc3)ccc1Oc1c(F)cc(C3=CCOCC3)cc12 [Example 796, (4S)-2′-(3,6-dihydro-2H-pyran-4-yl)-4′-fluoro-7′-(3-pyridinyl)spiro[1,3-thiazole-4,9′-xanthen]-2-amine]",,0.5 nM,8 nM,
"CC1(COc2cc3c(cc2F)Oc2ccc(-c4cncc(F)c4)cc2[C@@]32COC(N)=N2)COC1 [Example 327, (4S)-3′-fluoro-7′-(5-fluoro-3-pyridinyl)-2′-((3-methyl-3-oxetanyl)methoxy)spiro[1,3-oxazole-4,9′-xanthen]-2-amine]",,4.1 nM,21.5 nM,
"NC1=N[C@@]2(CS1)c1cc(-c3cccnc3F)ccc1Oc1c(F)cc(-c3ccnc(F)c3)cc12 [Example 1071, (4S)-4′-fluoro-7′-(2-fluoro-3-pyridinyl)-2′-(2-fluoro-4-pyridinyl)spiro[1,3-thiazole-4,9′-xanthen]-2-amine]",,0.3 nM,44 nM,
"Cc1ncccc1-c1ccc2c(c1)[C@@]1(COC(N)=N1)c1cc(C3=CCOCC3)ncc1O2 [Example 247, (5S)-3-(3,6-dihydro-2H-pyran-4-yl)-7-(2-methyl-3-pyridinyl)spiro[chromeno[2,3-c]pyridine-5,4′-[1,3]oxazol]-2′-amine]",,44.9 nM,45.5 nM,
"NC1=N[C@@]2(CO1)c1cc(OCc3ccccc3)ccc1Oc1ncc(C3=CCOCC3)cc12 [Example 967, (5S)-7-(benzyloxy)-3-(3,6-dihydro-2H-pyran-4-yl)spiro[chromeno[2,3-b]pyridine-5,4′-[1,3]oxazol]-2′-amine]",463 nM,44.4 nM,,
"(4S)-4′-fluoro-7′-(2-fluoro-3-pyridinyl)-2′-((3R)-3-methyl-1-pyrrolidinyl)spiro[1,3-oxazole-4,9′-xanthen]-2-amine, (4S)-4′-fluoro-7′-(2-fluoro-3-pyridinyl)-2′-((3S)-3-methyl-1-pyrrolidinyl)spiro[1,3-oxazole-4,9′-xanthen]-2-amine [Example 1055]",,0.4 nM,,33 nM
"(5R)-3-bromo-7-iodospiro[chromeno[2,3-b]pyridine-5,4′-[1,3]oxazol]-2′-amine, (5S)-3-bromo-7-iodospiro[chromeno[2,3-b]pyridine-5,4′-[1,3]oxazol]-2′-amine [Example 762]",,4 nM,,85 nM
"CC1(C#Cc2cnc3c(c2)[C@]2(CSC(N)=N2)c2cc(-c4ccc(F)nc4)ccc2O3)COC1 [Example 961, (5S)-7-(6-fluoro-3-pyridinyl)-3-((3-methyl-3-oxetanyl)ethynyl)spiro[chromeno[2,3-b]pyridine-5,4′-[1,3]thiazol]-2′-amine]",18 nM,1 nM,,
"CC(C)(C)COc1ccc2c(c1)[C@@]1(COC(N)=N1)c1cc(C3=CCOCC3)cnc1O2 [Example 503, (5S)-3-(3,6-dihydro-2H-pyran-4-yl)-7-(2,2-dimethylpropoxy)spiro[chromeno[2,3-b]pyridine-5,4′-[1,3]oxazol]-2′-amine]",19.6 nM,4.7 nM,,
"CC(C)(O)CCc1ccc2c(c1)[C@]1(COC(N)=N1)c1cc(-c3cncnc3)c(F)cc1O2 [Example 96, (R)-4-(2-amino-3′-fluoro-2′-(pyrimidin-5-yl)-5H-spiro[oxazole-4,9′-xanthene]-7′-yl)-2-methylbutan-2-ol]",,10.7 nM,22.8 nM,
"CC1(C#Cc2cc3c(cn2)Oc2ccc(-c4cccnc4)cc2[C@@]32COC(N)=N2)COC1 [Example 154, (5S)-3-((3-methyl-3-oxetanyl)ethynyl)-7-(3-pyridinyl)spiro[chromeno[2,3-c]pyridine-5,4′-[1,3]oxazol]-2′-amine]",,1.4 nM,6.5 nM,
"NC1=N[C@@]2(CS1)c1cc(-c3cccnc3)c(F)cc1Oc1c(F)cc(C3=CCOCC3)cc12 [Example 881, (4S)-7′-(3,6-dihydro-2H-pyran-4-yl)-3′,5′-difluoro-2′-(3-pyridinyl)spiro[1,3-thiazole-4,9′-xanthen]-2-amine]",23 nM,0.5 nM,,
"NC1=N[C@@]2(CS1)c1cc(-c3cnccc3F)ccc1Oc1ncc(-c3cccnc3)cc12 [Example 769, (5S)-7-(4-fluoro-3-pyridinyl)-3-(3-pyridinyl)spiro[chromeno[2,3-b]pyridine-5,4′-[1,3]thiazol]-2′-amine]",,2.3 nM,44 nM,
"CC1(COc2cc(F)c3c(c2)[C@@]2(CSC(N)=N2)c2cc(-c4cccnc4F)c(F)cc2O3)COC1 [Example 886, (4R)-3′,5′-difluoro-2′-(2-fluoro-3-pyridinyl)-7′-((3-methyl-3-oxetanyl)methoxy)spiro[1,3-thiazole-4,9′-xanthen]-2-amine]",≥ 10000 nM,475 nM,,
